According to PubChem BioAssay AID328 (DTP/NCI, 2004):
“And” between values parts separate entries of the source, which are not always exact repeats. Identical values can stand only once. Toxic doses and inconclusive results are not listed. How the source made its calls: active means survival T/C of 150% or more; inactive means T/C below 125% in these data.

System: BDF1 mice, P388 leukemia ip, median survival T/C
Assay: NCI In Vivo Anticancer Drug Screen. Data for tumor model P388 Leukemia (intraperitoneal) in B6D2F1 (BDF1) mice
Conditions: endpoint: median survival time, higher = longer survival
Method in brief: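 Mice carrying the transplantable tumour receive compound or vehicle. Survival is followed in each arm, and the treated measure is divided by the vehicle measure.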

[1] = dose: 50.0 mg/kg/injection, schedule: Q01DX009 (ip), vehicle: saline with Tween-80
[2] = dose: 100.0 mg/kg/injection, schedule: Q01DX009 (ip), vehicle: saline with Tween-80
[3] = dose: 200.0 mg/kg/injection, schedule: Q01DX009 (ip), vehicle: saline with Tween-80
[4] = dose: 100.0 mg/kg/injection, schedule: Q04DX003 (ip), vehicle: saline with Tween-80
[5] = dose: 200.0 mg/kg/injection, schedule: Q04DX003 (ip), vehicle: saline with Tween-80
[6] = dose: 400.0 mg/kg/injection, schedule: Q04DX003 (ip), vehicle: saline with Tween-80
[7] = dose: 50.0 mg/kg/injection, schedule: Q01DX009 (ip), vehicle: Klucel (hydroxypropylcellulose) (HPC)
[8] = dose: 50.0 mg/kg/injection, schedule: Q04DX003 (ip), vehicle: Klucel (hydroxypropylcellulose) (HPC)
[9] = dose: 100.0 mg/kg/injection, schedule: Q01DX009 (ip), vehicle: Klucel (hydroxypropylcellulose) (HPC)
[10] = dose: 100.0 mg/kg/injection, schedule: Q04DX003 (ip), vehicle: Klucel (hydroxypropylcellulose) (HPC)
[11] = dose: 200.0 mg/kg/injection, schedule: Q04DX003 (ip), vehicle: Klucel (hydroxypropylcellulose) (HPC)
[12] = dose: 400.0 mg/kg/injection, schedule: Q01DX009 (ip), vehicle: saline with Tween-80

Measured: T/C

CN1Cc2c(ccc3c2OCO3)[C@@H]2[C@H](O)Cc3cc4c(cc3[C@@H]21)OCO4
inactive: dose: 50.0 mg/kg/injection, schedule: Q01DX010 (ip), vehicle: saline 100 % of control | dose: 100.0 mg/kg/injection, schedule: Q01DX010 (ip), vehicle: saline 100 % of control

c1ccncc1
inactive: dose: 100.0 mg/kg/injection, schedule: Q04DX003 (ip), vehicle: saline 96 % of control | dose: 200.0 mg/kg/injection, schedule: Q04DX003 (ip), vehicle: saline 102 % of control | dose: 400.0 mg/kg/injection, schedule: Q04DX003 (ip), vehicle: saline 105 % of control

CCc1nnc2n1N=C(c1ccc(-c3ccccc3)cc1)CS2
inactive: [1] 90 % of control | [2] 89 % of control | [3] 90 % of control

Cc1ccc(-c2nc3cc(Cl)ccc3c(=O)o2)cc1
inactive: [1] 110 % of control | dose: 75.0 mg/kg/injection, schedule: Q01DX009 (ip), vehicle: saline with Tween-80 104 % of control | [2] 100 % of control | [4] 109 % of control | dose: 150.0 mg/kg/injection, schedule: Q01DX009 (ip), vehicle: saline with Tween-80 109 % of control | [3] 120 % of control | [5] 109 % of control | dose: 300.0 mg/kg/injection, schedule: Q01DX009 (ip), vehicle: saline with Tween-80 95 % of control

Cn1c(N)nc2nc[nH]c2c1=S
inactive: dose: 10.0 mg/kg/injection, schedule: Q01DX010 (ip), vehicle: saline 91 % of control | dose: 20.0 mg/kg/injection, schedule: Q01DX010 (ip), vehicle: saline 91 % of control and 95 % of control | dose: 40.0 mg/kg/injection, schedule: Q01DX010 (ip), vehicle: saline 91 % of control and 100 % of control | dose: 80.0 mg/kg/injection, schedule: Q01DX010 (ip), vehicle: saline 91 % of control and 95 % of control

CCc1nn2c(=O)nc(Oc3ccccc3)nc2s1
inactive: [1] 101 % of control | [2] 106 % of control | [3] 98 % of control

CCCCc1c(C)[nH]c(=S)[nH]c1=O
inactive: [4] 95 % of control | [5] 109 % of control | [6] 95 % of control

CC1CCc2c(ccc3ccccc23)C1=O (configuration not stated)
inactive: dose: 100.0 mg/kg/injection, schedule: Q01DX009 (ip), vehicle: gum acacia 92 % of control | dose: 100.0 mg/kg/injection, schedule: Q04DX003 (ip), vehicle: gum acacia 107 % of control | dose: 200.0 mg/kg/injection, schedule: Q01DX009 (ip), vehicle: gum acacia 100 % of control | dose: 200.0 mg/kg/injection, schedule: Q04DX003 (ip), vehicle: gum acacia 103 % of control | dose: 400.0 mg/kg/injection, schedule: Q01DX009 (ip), vehicle: gum acacia 100 % of control | dose: 400.0 mg/kg/injection, schedule: Q04DX003 (ip), vehicle: gum acacia 89 % of control

C[C@]12CCC(=O)C=C1CC[C@@H]1[C@@H]2C(=O)C[C@]2(C)C3=CC(=O)O[C@H]3C[C@@H]12
inactive: dose: 12.5 mg/kg/injection, schedule: Q01DX009 (ip), vehicle: Klucel (hydroxypropylcellulose) (HPC) 109 % of control and 110 % of control | dose: 12.5 mg/kg/injection, schedule: Q04DX003 (ip), vehicle: Klucel (hydroxypropylcellulose) (HPC) 109 % of control | dose: 25.0 mg/kg/injection, schedule: Q01DX009 (ip), vehicle: Klucel (hydroxypropylcellulose) (HPC) 118 % of control and 120 % of control | dose: 25.0 mg/kg/injection, schedule: Q04DX003 (ip), vehicle: Klucel (hydroxypropylcellulose) (HPC) 113 % of control | [7] 86 % of control and 115 % of control | [8] 122 % of control | [9] 90 % of control

N#CSCc1ccc(CSC#N)c(Cl)c1
inactive: dose: 1.56 mg/kg/injection, schedule: Q01DX009 (ip), vehicle: saline with Tween-80 118 % of control | dose: 6.25 mg/kg/injection, schedule: Q01DX009 (ip), vehicle: saline with Tween-80 100 % of control

Cc1c(C)c2c(N)c3ccccc3nc2c2ccccc12
inactive: dose: 12.5 mg/kg/injection, schedule: Q01DX001 (ip), vehicle: saline with Tween-80 97 % of control | dose: 25.0 mg/kg/injection, schedule: Q01DX001 (ip), vehicle: saline with Tween-80 100 % of control and 117 % of control | dose: 50.0 mg/kg/injection, schedule: Q01DX001 (ip), vehicle: saline with Tween-80 105 % of control

CC(=O)Nc1ccc(S(=O)(=O)Oc2ccc([N+](=O)[O-])cc2)cc1
inactive: dose: 1.56 mg/kg/injection, schedule: Q01DX009 (ip), vehicle: saline 96 % of control | dose: 3.12 mg/kg/injection, schedule: Q01DX009 (ip), vehicle: saline 112 % of control | dose: 6.25 mg/kg/injection, schedule: Q01DX009 (ip), vehicle: saline 107 % of control | dose: 12.5 mg/kg/injection, schedule: Q01DX009 (ip), vehicle: saline 93 % of control | dose: 25.0 mg/kg/injection, schedule: Q01DX009 (ip), vehicle: saline 92 % of control and 103 % of control

CCCCCCC1OCC2(CO1)COC(CCCCCC)OC2 (configuration not stated)
inactive: [4] 90 % of control | [5] 86 % of control

Cc1ccc(N=NN(C)C)cc1
inactive: dose: 33.0 mg/kg/injection, schedule: Q01DX009 (ip), vehicle: saline with Tween-80 104 % of control | [1] 108 % of control

O=C(Nc1ccc([N+](=O)[O-])cc1)OCC#CC#CCOC(=O)Nc1ccc([N+](=O)[O-])cc1
inactive: [7] 100 % of control | [9] 100 % of control

O=C(O)C(CSC(c1ccccc1)c1ccccc1)N1C(=O)c2ccccc2C1=O (configuration not stated)
inactive: [8] 100 % of control | [10] 104 % of control | [11] 95 % of control

Cc1cc(Cl)nc(Nc2ccccc2)n1
inactive: dose: 3.12 mg/kg/injection, schedule: Q01DX009 (ip), vehicle: DMSO 100 % of control | dose: 6.25 mg/kg/injection, schedule: Q01DX009 (ip), vehicle: DMSO 95 % of control and 100 % of control | dose: 6.25 mg/kg/injection, schedule: Q04DX003 (ip), vehicle: DMSO 100 % of control | dose: 12.5 mg/kg/injection, schedule: Q01DX009 (ip), vehicle: DMSO 100 % of control | dose: 12.5 mg/kg/injection, schedule: Q04DX003 (ip), vehicle: DMSO 108 % of control | dose: 25.0 mg/kg/injection, schedule: Q01DX009 (ip), vehicle: DMSO 95 % of control | dose: 25.0 mg/kg/injection, schedule: Q04DX003 (ip), vehicle: DMSO 91 % of control

CC1C=CCC2C(=O)OC(=O)C12 (configuration not stated)
inactive: dose: 25.0 mg/kg/injection, schedule: Q04DX003 (ip), vehicle: saline with Tween-80 100 % of control | dose: 50.0 mg/kg/injection, schedule: Q04DX003 (ip), vehicle: saline with Tween-80 100 % of control | [4] 100 % of control

CCCCOB=O
inactive: [4] 109 % of control | [5] 100 % of control

COc1cccc(/C=N/NC(=O)c2cc(C)nc3ccc(Br)cc23)c1O
inactive: [1] 103 % of control | [2] 103 % of control | [3] 100 % of control

OC/C(=N/Nc1ccc2ccccc2n1)c1ccccc1
inactive: [1] 114 % of control | [2] 117 % of control | [4] 94 % of control | [3] 115 % of control | [5] 102 % of control | [12] 88 % of control | [6] 101 % of control

OCCCNc1cccc2ccccc12
inactive: [9] 105 % of control | [10] 100 % of control | dose: 200.0 mg/kg/injection, schedule: Q01DX009 (ip), vehicle: Klucel (hydroxypropylcellulose) (HPC) 100 % of control | [11] 100 % of control | dose: 400.0 mg/kg/injection, schedule: Q01DX009 (ip), vehicle: Klucel (hydroxypropylcellulose) (HPC) 110 % of control | dose: 400.0 mg/kg/injection, schedule: Q04DX003 (ip), vehicle: Klucel (hydroxypropylcellulose) (HPC) 100 % of control

CNC(=O)OCc1c(COC(=O)NC)c(-c2ccc(F)cc2)n2c1CCC2
inactive: dose: 1.56 mg/kg/injection, schedule: Q01DX009 (ip), vehicle: Klucel (hydroxypropylcellulose) (HPC) 122 % of control

CCOC(=S)S
inactive: dose: 100.0 mg/kg/injection, schedule: Q01DX009 (ip), vehicle: saline 100 % of control | dose: 200.0 mg/kg/injection, schedule: Q01DX009 (ip), vehicle: saline 95 % of control

COC(=O)CCC(C)C1CCC2C3CCC4CC(SC(=N)N)CCC4(C)C3CCC12C (configuration not stated)
inactive: dose: 1.56 mg/kg/injection, schedule: Q01DX009 (ip), vehicle: suspension in saline 93 % of control | dose: 3.13 mg/kg/injection, schedule: Q01DX009 (ip), vehicle: suspension in saline 100 % of control | dose: 6.25 mg/kg/injection, schedule: Q01DX009 (ip), vehicle: suspension in saline 109 % of control | [1] 105 % of control | [2] 103 % of control

O=C(Nc1ccc([N+](=O)[O-])cc1Cl)N(CCO)C1CCCCC1
inactive: [2] 105 % of control | [3] 100 % of control | [12] 90 % of control
